# Assays:
# Assay type in all cases: in vivo, rat
# normal conscious rats = experiment: Respiratory function by head-out plethysmograph in normal conscious rats; conditions: p-MPPI 3 mg/kg i.p., n=3
# Method: (§1) Experiments were conducted in unanesthetized, awake, spontaneously breathing rats at 24 hours prior to SCI, at 24 hours p.i. and weekly afterwards at 1,2,3, and 4 weeks p.i. (1) Acclimatization of the Animals. […] Animals were placed in the body cylinder of the plethysmograph (FIG. 1a) for 60 minutes per day for at least 5 days. […] (2) Non-Invasive Measurements of Respiratory Rate, Tidal Volume and Minute Ventilation. Non-invasive measurements of respiratory function in conscious rats were performed with a restrained head-out plethysmograph specially designed for rodents (BUXCO Electronics, Inc., Sharon, Conn.) (FIG. 1a). The plethymograph apparatus has a neck seal that prevents leakage of air from between the animal's neck and the plethymograph opening. Displacement of the thoracic wall produced by the animal's respiratory movements causes changes in the cylinder pressure, which results in air flowing across a pneumotachograph located on the wall of the cylinder. The pressure drop across the pneumotachograph is measured with a pressure transducer and is proportional to the flow. This signal is amplified and integrated into volume. From measurements of volume and flow, a computer and appropriate software provides respiratory parameters, such as respiratory rate (f), tidal volume (Vt), minute ventilation (Ve), peak inspiratory flow, peak expiratory flow, inspiratory time (Ti), expiratory time (Te), and accumulated volume. An additional opening on the wall of the box allows volume calibration by injecting and removing air from the box with a calibrated syringe.
# (§2) The noise level in the laboratory was kept to a minimum in order not to startle the animals. Further, the animals were visually isolated from the investigators by means of a chamber made of an opaque material that surrounded and covered the front-end of the body plethysmograph (FIG. 1b). Baseline recordings lasted for 4 minutes. (3) Measurement of Ventilatory Response to Carbon Dioxide. For measurement of the ventilatory response to CO2, animals were exposed to air containing 7% CO2. The animals breathed from a funnel fixed in the front wall of a chamber made of an opaque material (FIG. 1b). The animals were exposed to the gas mixture containing 7% CO2 (mixed with 60% O2 and 33% N2) for 5 minutes with recording of respiratory activity for another 2 minutes (a total recording duration of 7 minutes).
# (§3) The 5HT1A receptor antagonist, p-MPPI (RBI, Natick, Mass.) was also dissolved in 0.9% saline and given i.p. in a dose of 3 mg/kg (pH 7.4 and final volume of 0.5 ml). […] Vehicle solution (VEH) was 0.9% saline and also injected at i.p. (pH 7.4; volume: 0.5 ml/rat).
# T8 SCI rats [1] = experiment: Respiratory function by head-out plethysmograph in conscious rats after T8 contusion SCI; conditions: p-MPPI 2 mg/kg i.p., dose titration experiments
# T8 SCI rats [2] = experiment: as above; conditions: for Te (expiratory time) / Ti (inspiratory time) / Tv (tidal volume) / Ve (minute ventilation) / f (respiratory rate): 24 hours post SCI, baseline (room air), rats 360-390 g
# Method: Female Sprague-Dawley rats (250–280 g and 360–390 g; Taconic, Germantown, N.Y.) were anesthetized with 4% chloral hydrate (360 mg/kg, i.p.). An incomplete spinal courd contusion injury was produced at T8 with a weight drop device (10 g×2.5 cm) as previously described (Wrathall et al., 1985). After SCI, manual expression of bladders was performed twice daily until a reflex bladder was established. Animal care also included housing the rats in pairs to reduce isolation-induced stress, maintaining ambient temperature at 22–25° C., and using highly absorbent bedding. No prophylactic antibiotics were given.
# as §1, §2, §3
# Baseline respiratory function was measured under room air ventilation and after the animal was stabilized inside a boy cylinder (FIGS. 1a and b) for 30 minutes at each time point prior to SCI and after injury. Immediately following the evaluation of baseline respiration, the animals were let to breathe air containing 7% CO2 for 7 minutes to monitor their ventilatory response to CO2 stimulus (Teng et al., 1998a and 1999).
# [3] = 24 hours p.i., p-MPPI 3 mg/kg i.p. 20 minutes before 8-OH-DPAT
# [4] = 3 & 4 min post p-MPPI 3 mg/kg i.p.
# [5] = 19 & 20 min post p-MPPI 3 mg/kg i.p.
smiles,measurement,setting,value
"COc1ccccc1N1CCN(CCN(C(=O)c2ccc(I)cc2)c2ccccn2)CC1 [p-MPPI, 4-(2′-methoxyphenyl)-1-[2′-[N-(2″-pyridinyl)-p-iodobenzamido]ethyl]piperazine]",effect of p-MPPI per se on respiratory function,normal conscious rats,No significant impacts
same,block of stimulating effects of 8-OH-DPAT on respiratory function,T8 SCI rats [1],substantially block
same,effect of pre-treatment on 8-OH-DPAT effects on respiration,T8 SCI rats [2]; [3],significantly suppressed
same,effect of pre-treatment on 8-OH-DPAT stimulation of ventilatory response to 7% CO2,T8 SCI rats [2]; [3],significantly blocked
same,Te (expiratory time),T8 SCI rats [2]; [4],0.28 ± 0.02↓
same,Ti (inspiratory time),T8 SCI rats [2]; [4],0.33 ± 0.01
same,Tv (tidal volume),T8 SCI rats [2]; [4],0.75 ± 0.08↓ ml
same,Ve (minute ventilation),T8 SCI rats [2]; [4],76.9 ± 4.6↓ ml/min
same,f (respiratory rate),T8 SCI rats [2]; [4],103.2 ± 5.4↑ breaths/min
same,Te (expiratory time),T8 SCI rats [2]; [5],0.54 ± 0.10
same,Ti (inspiratory time),T8 SCI rats [2]; [5],0.28 ± 0.04
same,Tv (tidal volume),T8 SCI rats [2]; [5],0.77 ± 0.08↓ ml
same,Ve (minute ventilation),T8 SCI rats [2]; [5],57.8 ± 4.1↓ ml/min
same,f (respiratory rate),T8 SCI rats [2]; [5],76.2 ± 7.7 breaths/min

# Source: patent publication US7071194B2, “Method for improving respiratory function and inhibiting muscular degeneration” (priority 2000, dated 2006)
